From patent US10954214B2 (Janssen Pharmaceutica NV, priority 2016, dated 2021)

How the values were obtained:
[1] = system: IL6 secretion by TMD8 ABC-DLBCL cells; assay: Human IL6 Mesoscale assay (TMD-8); format: cell-based; settings: Homo sapiens, TMD8; TMD-8 cells, 24 h
Description: (§1) NFKB signaling regulates the secretion of multiple cytokines, including IL6 and IL10. Secretion of the cytokines IL6 and IL10 by TMD8 or OCI-LY3 ABC-DLBCL cells was measured using a mesoscale assay. Inhibition of NFKB signaling by MALT1 or BTK inhibitors results in a decrease of IL6/10 secretion.
(§2) TMD8 or OCI-LY3 cells were propagated in RPMI-1640 (Sigma Aldrich) supplemented with 10% fetal bovine serum (HyClone), 1 mM sodium pyruvate (Invitrogen), 2 mM L-glutamine (Sigma Aldrich) and 1% PenStrep (Sigma Aldrich). Cell passage number should not exceed 30. Cells should be kept between 0.5-2.5 million cells per mL during culturing and cells should be supplemented every 2-3 days with fresh 50 μM beta-mercaptoenthanol. No beta-mercaptoethanol was used during the mesoscale assay.
(§3) For the Mesoscale assay, 100,000 TMD8 or OCI-LY3 cells were seeded per well into black-colored 96-well plates with clear bottom (Corning #3904) and test compounds were added in 9 dilution steps (1:2) ranging from 15 μM to 58.6 nM (final DMSO concentration 0.3%). DMSO control wells were used to determine the maximum signal (High Control (HC)). Treatment with the BTK inhibitor RN486 in a dose range from 30 nM to 131 pM (9 dilutions of 1:2) served as a positive control for NFKB pathway inhibition and was used to determine the maximum inhibition (Low Control (LC)). Compounds and cells were incubated for 24 h at 37° C. and 5% CO2 (assay volume is 150 μL). After 24 h of incubation 50 μL of the supernatant was transferred to a MSD plate (V-Plex Proinflammation Panel 1 (human) kit, Mesoscale (MSD)) and incubated for 2 h with vigorous shaking (600 rpm) at room temperature. Following incubation, plates were washed 3× with PBS+0.05% Tween-20 and 25 μL detection antibody solution (IL6 & IL10 antibodies in diluent 3 (MSD)) was added per well followed by 2 h of incubation with vigorous shaking (600 rpm) at room temperature. After 3× washes with PBS+0.05% Tween-20, plates were incubated with 150 μL 2× Read Buffer T and read on SECTOR imager.

[2] = system: IL10 secretion by TMD8 ABC-DLBCL cells; assay: Human IL10 Mesoscale assay (TMD-8); format: cell-based; settings: Homo sapiens, TMD8; TMD-8 cells, 24 h
Description: as §1, §2, §3

[3] = biological target: full-length MALT1 protein (Strep-MALT1(1-824)-His) (Homo sapiens (Human), UniProt Q9UDY8); assay: MALT1 Biochemical Protease Assay (Ac-LRSR-AMC substrate); settings: 10 nM FL MALT1, 200 μM Ac-LRSR-AMC, 4 h at RT; read-out: MALT1_Biochemical activity (Ac-LRSR-amc) IC50
full-length MALT1 protein (Strep-MALT1(1-824)-His), sequence (Q9UDY8 whole entry): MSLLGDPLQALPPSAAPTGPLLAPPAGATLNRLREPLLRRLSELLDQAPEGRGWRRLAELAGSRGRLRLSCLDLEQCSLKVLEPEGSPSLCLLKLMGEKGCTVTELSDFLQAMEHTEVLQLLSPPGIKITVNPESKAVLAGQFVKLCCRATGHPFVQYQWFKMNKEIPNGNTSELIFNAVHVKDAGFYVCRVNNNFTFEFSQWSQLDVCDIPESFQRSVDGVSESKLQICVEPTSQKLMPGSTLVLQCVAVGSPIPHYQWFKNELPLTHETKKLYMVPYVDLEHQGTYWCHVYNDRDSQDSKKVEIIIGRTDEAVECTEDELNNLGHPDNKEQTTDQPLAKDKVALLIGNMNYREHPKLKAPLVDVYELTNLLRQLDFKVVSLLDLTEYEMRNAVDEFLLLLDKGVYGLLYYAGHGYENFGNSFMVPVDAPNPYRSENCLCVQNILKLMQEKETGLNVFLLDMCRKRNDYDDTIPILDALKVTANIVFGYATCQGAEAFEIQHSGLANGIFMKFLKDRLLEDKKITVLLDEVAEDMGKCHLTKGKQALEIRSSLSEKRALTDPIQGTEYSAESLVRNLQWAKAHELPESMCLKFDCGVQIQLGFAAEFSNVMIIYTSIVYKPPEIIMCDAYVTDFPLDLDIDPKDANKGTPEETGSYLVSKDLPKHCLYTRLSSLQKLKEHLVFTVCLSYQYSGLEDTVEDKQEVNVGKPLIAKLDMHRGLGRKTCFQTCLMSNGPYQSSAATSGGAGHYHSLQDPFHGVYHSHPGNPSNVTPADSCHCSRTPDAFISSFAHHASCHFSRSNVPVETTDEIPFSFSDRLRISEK
Description: The tetrapeptide LRSR is coupled to AMC (7-amino-4-methylcoumarin) and provides a quenched, fluorescent substrate for the MALT1 protease (SM Biochemicals). […] Test compound concentrations ranged from 30 μM to 0.5 nM using 11 dilution steps (1:3). Background signal was measured from control wells containing assay buffer without enzyme which functions as low control (LC). High control (HC) values were generated using the reaction with enzyme but no compound treatment. Compounds were pre-incubated with MALT1 enzyme for 50 minutes at RT. […] The reaction was subsequently incubated for 4 h at RT and fluorescence was measured.
LC=Median of the low control values
An estimate of the slope of the plot in terms of the Hill coefficient was also obtained. IC50 Calculation:
[formula] With • UB=upper bound • LB=lower bound Used in “Lexis Dose Response Curve Fitting” Version 1.0.

Structure (SMILES) | IC50 [1] [nM] | IC50 [2] [nM] | IC50 [3] [nM]
CC(F)(F)c1ncc(-n2ncc(C(=O)Nc3cnc(-n4nccn4)c(Cl)c3)c2C(F)(F)F)c2ccccc12 [Cpd 402, N-(5-chloro-6-(2H-1,2,3-triazol-2-yl)pyridin-3-yl)-1-(1-(1,1-difluoroethyl)isoquinolin-4-yl)-5-(trifluoromethyl)-1H-pyrazole-4-carboxamide] | 200 | 85 | 178
CN1CCc2ccc(NC(=O)c3cnn(-c4cccc5ncccc45)c3C(F)(F)F)cc2C1=O [Cpd 212, N-(2-methyl-1-oxo-1,2,3,4-tetrahydroisoquinolin-7-yl)-1-(quinolin-5-yl)-5-(trifluoromethyl)-1H-pyrazole-4-carboxamide] | 1020 | 513 | 11000
O=C(Nc1cnc(OC(F)F)c(Cl)c1)c1cnn(-c2cncc3ccccc23)c1C(F)(F)F [Cpd 106, N-(5-chloro-6-(difluoromethoxy)pyridin-3-yl)-1-(isoquinolin-4-yl)-5-(trifluoromethyl)-1H-pyrazole-4-carboxamide] | 1260 | 617 | 447
N#Cc1cc(NC(=O)c2cnn(-c3cccn4ccnc34)c2C(F)(F)F)cnc1-n1nccn1 [Cpd 230, N-(5-cyano-6-(2H-1,2,3-triazol-2-yl)pyridin-3-yl)-1-(imidazo[1,2-a]pyridin-8-yl)-5-(trifluoromethyl)-1H-pyrazole-4-carboxamide] | 1410 | 759 | 1070
O=C(O)c1cn(-c2ncc(NC(=O)c3cnn(-c4cccc5ncccc45)c3C(F)(F)F)cc2Cl)nn1 [Cpd 234, 1-(3-chloro-5-(1-(quinolin-5-yl)-5-(trifluoromethyl)-1H-pyrazole-4-carboxamido)pyridin-2-yl)-1H-1,2,3-triazole-4-carboxylic acid] | 263 | 141 | 851
C[C@H](O)c1ncc(-n2ncc(C(=O)Nc3cnc(-n4nccn4)c(Cl)c3)c2C(F)(F)F)c2ccccc12 (single isomer, unassigned) [Cpd 443, (*S)—N-(5-chloro-6-(2H-1,2,3-triazol-2-yl)pyridin-3-yl)-1-(1-(1-hydroxyethyl)isoquinolin-4-yl)-5-(trifluoromethyl)-1H-pyrazole-4-carboxamide] | 46 | 50 | 13
O=C(Nc1cnc(-n2nccn2)c(Cl)c1)c1cnn(-c2cnc([C@@H]3CCCO3)c3ccccc23)c1C(F)(F)F (single isomer, unassigned) [Cpd 437, (*S)—N-(5-chloro-6-(2H-1,2,3-triazol-2-yl)pyridin-3-yl)-1-(1-(tetrahydrofuran-2-yl)isoquinolin-4-yl)-5-(trifluoromethyl)-1H-pyrazole-4-carboxamide] | 7590 | 2510 | 1780
O=C(Nc1cnc(-n2nccn2)c(Cl)c1)c1cnn(-c2cccc3c(C(F)F)nccc23)c1C(F)(F)F [Cpd 400, N-(5-chloro-6-(2H-1,2,3-triazol-2-yl)pyridin-3-yl)-1-(1-(difluoromethyl)isoquinolin-5-yl)-5-(trifluoromethyl)-1H-pyrazole-4-carboxamide] | 126 | 47 | 209
Cc1nc(-n2nccn2)c(Cl)cc1NC(=O)c1cnn(-c2cnc(Cl)c3sccc23)c1C(F)(F)F [Cpd 426, N-(5-chloro-2-methyl-6-(2H-1,2,3-triazol-2-yl)pyridin-3-yl)-1-(7-chlorothieno[2,3-c]pyridin-4-yl)-5-(trifluoromethyl)-1H-pyrazole-4-carboxamide] | 91 | 60 | 13
Cn1ncc2cc(NC(=O)c3cnn(-c4cccc5ncccc45)c3C(F)(F)F)cnc21 [Cpd 225, N-(1-methyl-1H-pyrazolo[3,4-b]pyridin-5-yl)-1-(quinolin-5-yl)-5-(trifluoromethyl)-1H-pyrazole-4-carboxamide] | 407 | 794 | 1230
O=C1COc2ccc(NC(=O)c3cnn(-c4cccc5ncccc45)c3C(F)(F)F)cc2N1 [Cpd 217, N-(3-oxo-3,4-dihydro-2H-benzo[b][1,4]oxazin-6-yl)-1-(quinolin-5-yl)-5-(trifluoromethyl)-1H-pyrazole-4-carboxamide] | 537 | 269 | 4900
N#Cc1ncc(-n2ncc(C(=O)Nc3cnc(-n4nccn4)c(Cl)c3)c2C(F)(F)F)c2ccsc12 [Cpd 415, N-(5-chloro-6-(2H-1,2,3-triazol-2-yl)pyridin-3-yl)-1-(7-cyanothieno[2,3-c]pyridin-4-yl)-5-(trifluoromethyl)-1H-pyrazole-4-carboxamide] | 95 | 93 | 54
O=C(Nc1cnc(-n2nccn2)c(Cl)c1)c1cnn(-c2cccc3nc([C@H]4CCCO4)ccc23)c1C(F)(F)F (single isomer, unassigned) [Cpd 440, (*R)—N-(5-chloro-6-(2H-1,2,3-triazol-2-yl)pyridin-3-yl)-1-(2-(tetrahydrofuran-2-yl)quinolin-5-yl)-5-(trifluoromethyl)-1H-pyrazole-4-carboxamide] | 186 | 162 | 1580
COC(=O)c1cc(-c2ncc(NC(=O)c3cnn(-c4cccc5ncccc45)c3C(F)(F)F)cc2C#N)nn1C [Cpd 267, methyl 3-(3-cyano-5-(1-(quinolin-5-yl)-5-(trifluoromethyl)-1H-pyrazole-4-carboxamido)pyridin-2-yl)-1-methyl-1H-pyrazole-5-carboxylate] | 35 | 56 | 155
CC(=O)c1cc(-n2ncc(C(=O)Nc3cnc(-n4nccn4)c(Cl)c3)c2C(F)(F)F)c2ccccc2n1 [Cpd 375, 1-(2-acetylquinolin-4-yl)-N-(5-chloro-6-(2H-1,2,3-triazol-2-yl)pyridin-3-yl)-5-(trifluoromethyl)-1H-pyrazole-4-carboxamide] | 102 | 85 | 355
CS(=O)(=O)c1cc(NC(=O)c2cnn(-c3cccc4ncccc34)c2C(F)(F)F)ccc1-n1ccnn1 [Cpd 213, N-(3-(methylsulfonyl)-4-(1H-1,2,3-triazol-1-yl)phenyl)-1-(quinolin-5-yl)-5-(trifluoromethyl)-1H-pyrazole-4-carboxamide] | > 15100 | > 15100 | 10000
Cc1cn2c(-n3ncc(C(=O)Nc4ccnc(C(F)(F)F)c4)c3C(F)(F)F)cccc2n1 [Cpd 206, 1-(2-methylimidazo[1,2-a]pyridin-5-yl)-5-(trifluoromethyl)-N-(2-(trifluoromethyl)pyridin-4-yl)-1H-pyrazole-4-carboxamide] | 6170 | 3890 | 1740
Cc1cnc2cccc(-n3ncc(C(=O)Nc4cnc(-n5nccn5)c(Cl)c4)c3C(F)(F)F)n12 [Cpd 211, N-(5-chloro-6-(2H-1,2,3-triazol-2-yl)pyridin-3-yl)-1-(3-methylimidazo[1,2-a]pyridin-5-yl)-5-(trifluoromethyl)-1H-pyrazole-4-carboxamide] | 1660 | 2290 | 35
COc1ncc(NC(=O)c2cnn(-c3cccc4c(=O)[nH]ccc34)c2C(F)(F)F)cc1C#N [Cpd 428, N-(5-cyano-6-methoxypyridin-3-yl)-1-(1-oxo-1,2-dihydroisoquinolin-5-yl)-5-(trifluoromethyl)-1H-pyrazole-4-carboxamide] | 550 | 240 | 11
O=C(Nc1ccnc(C(F)(F)F)c1)c1cnn(-c2cccc3c(=O)[nH]ccc23)c1C(F)(F)F [Cpd 158, 1-(1-oxo-1,2-dihydroisoquinolin-5-yl)-5-(trifluoromethyl)-N-(2-(trifluoromethyl)pyridin-4-yl)-1H-pyrazole-4-carboxamide] | > 1510 | 380 | –
